The results in this text go back to patent US20070078143A1, “Method for preparing Ziprasidone monohydrochloride-hydrate” (Wockhardt Limited, priority 2003, published 2007).

Molecules are shown by their SMILES. Where a name gives a salt, the structure may show the parent alone.

Data set [1] can be described thus: Moisture re-absorption of the dried (anhydrous) salt on exposure to humidity. It is filed as physicochemical. The note with it: after prolonged drying to anhydrous (moisture content up to 0.7% by weight); exposed at 60% relative humidity. An excerpt:
Anhydrous Ziprasidone monohydrochloride is disclosed in U.S. Pat. No. 5,312,925. The Ziprasidone monohydrochloride-hydrate of the present invention can be made anhydrous having moisture content up to 0.7% by weight, after prolonged drying. It has been observed that the compound re-absorbs moisture up to 6% when it is exposed at 60% relative humidity.

Data set [2] can be described thus: Solubility in common organic solvents. It is filed as physicochemical. As to the method:
Therefore, another objective of the present invention is to find a suitable solvent or solvent mixture to purify crude Ziprasidone base to obtain the required purity with minimal loss of material. The crude Ziprasidone obtained from step (a) is dissolved in a mixture of tetrahydrofuran and N,N-dimethylformamide (7:3, v/v) with activated charcoal and heated to clarify the solution. The solution obtained is filtered, washed with a cold solvent mixture of THF and DMF and dried. The dried Ziprasidone is obtained in 99% HPLC purity.

With `O=C1Cc2cc(CCN3CCN(c4nsc5ccccc45)CC3)c(Cl)cc2N1` [Ziprasidone monohydrochloride-hydrate, 5-(2-(4-1,2-benzisothiazol-3-yl)piperazinyl)ethyl)-6-chloro-1,3-dihydro-2H-indol-2-one Monohydrochloride-hydrate], in data set [1], the moisture re-absorbed result was “up to 6%”.
Take `O=C1Cc2cc(CCN3CCN(c4nsc5ccccc45)CC3)c(Cl)cc2N1` [Ziprasidone, 5-(2-(4-(1,2-benzisothiazol-3-yl)-1-piperazinyl)ethyl)-6-chloro-1,3-dihydro-2H-indole-2-one]: the “solubility in most of the common organic solvents” value in data set [2] was “poor solubility”.
